From US20150231199A1, “PEPTIDES AND THEIR USES” (priority 2012, published 2015)
In brackets after ≈: the same amount, converted by molar mass. Read-outs that look alike come from different tables or passages of the source. Marks after values point to notes of the source that are not given here. Positions of bridges follow the written chain, without caps; N, C: chain ends. Residues, ends and D or L forms follow the SMILES beside them. Chains are numbered I, II in the order given. *: point of attachment. Palmitoyl = CCCCCCCCCCCCCCCC(=O)*; Decanoyl = CCCCCCCCCC(=O)*; Octanoyl = CCCCCCCC(=O)*

How the values were obtained:
[1] = In vivo acute systemic toxicity test; conditions: C57BL6, mouse, mice, read-out: Tolerate concentration
Protocol: (§1) Wild type C57BL6 (6-8 weeks old) (20-30 gram weigh) mice purchased from National University of Singapore were used for this study. All animals were utilized after 1 week acclimatization and put in air conditioned rooms with controlled temperature (23±2° C.), 12 hours light-dark cycle and humidity (55-60%). All animals were conducted in compliance with the Association for Research in Vision and Ophthalmology (ARVO) statement for the Use of Animals in Ophthalmic, and Vision Research, the guide for the Care and Use of laboratory animals (National Research Council) and under the supervision of Singhealth Experimental Medical Centre (SEMC). To investigate the corneal toxicity, three normal and healthy wild type mice had been chosen randomly and treated with 1 mg/ml and 3 mg/ml of C8V2D in 10 mM PBS. C8V2D was applied topically 5 times/day for 4 days. Cornea clarity had been checked by slit lamp microscopy for everyday follow-up to day 4 after application. To study the acute systemic toxicity, C8V2D was administrated via intravenous and intraperitoneal routes. Two mice have been chosen for each route and moitored carefully through 24 hours to observe and record any mortality, morbidity or toxicity signs. Gross necropsy would be done on any mortality or moribund animal.

[2] = system: red blood cells (RBCs) of New Zealand white rabbits; assay: in vitro; format: cell-based, rabbit
Protocol: (§2) Fresh red blood cells (RBCs) of New Zealand white rabbits were used for this experiment. The RBCs obtained were centrifuged at 3000 rpm for 10 min. Supernatant was removed and washed twice with sterile PBS Buffer (20 mM, 100 mM NaCl, pH 7). The RBCs were further diluted to 8% stock solution in PBS. Peptides were dissolved in PBS with desired stock concentrations. When compounds were mixed with RBCs, desired concentration of 4% RBCs was obtained. For C14V2D and C16V2D, they were dissolved in Dimethylformamide ([…]; DMF) with desired stock concentrations. When compounds were mixed with RBCs, desired concentration of 4% RBCs and 0.5% DMF was obtained. DMF concentration of <1% was used as it had negligible hemolytic activity on RBCs. The mixtures were added to 1.5 mL centrifuge tubes and incubated at 37° C. for 1 h. After incubation, the blood was centrifuged at 3000 rpm for 3 min at 4° C. 100 μL of the supernatant was transferred into transparent 96-well plate. The absorbance was measured at 576 nm using a microplate reader (TECAN Infinite 200M Pro). 2% Triton X-100 was used as positive control. PBS was used as negative controls. The amount of hemoglobin released was calculated using the following equation: […]

[3] = in vitro; format: cell-based; conditions: human
Protocol: Cells were plated at a density of 10,000 cells per well in a 96-well opaque white plate (SPL Life Sciences Inc. Korea). Test compounds of various concentrations and controls were added to appropriate wells such that the final volume is 100 μl in each well. After 4 hours of exposure to the test compounds, the plates were removed from 37° C. incubator and equilibrated to 22° C. for 30 minutes. One hundred microliters of CellTiter-Glo reagent (Promega Inc. USA) was added to each well and the ATP assay was performed according to manufacturer's instructions. Luminescence was assessed using a micro-plate reader (Tecan Infinite 200 Pro, Switzerland). The cells exposed to 1% Triton X-100 were used as a positive control. The percent cell viable of each compound was determined using the formula below (L=Luminescence detected):
% Viability=[(Lnegative controls)−(Lexperiments)]/[(Lnegative controls)−(Lpositive controls)]×100

[4] = In vivo topical (corneal) toxicity test; conditions: C57BL6, mouse, topical or ocular, mice, 5 times/day for 4 days, read-out: Tolerate concentration
Protocol: as §1

[5] = system: Pseudomonas aeruginosa; format: cell-based
Protocol: (§3) V2-dimer and all lipopeptides (FIG. 1A) used in this study were purchased from Mimotopes. All peptides were prepared by dissolving in sterile water to make 1000 μg/mL stock solutions. Minimum Inhibitory Concentration (MIC) determination was carried out in Mueller Hinton Broth (MHB) using the broth macro-dilution method as described by the Clinical and Laboratory Standards Institute (CLSI). Then, cation-adjusted MHB (CA-MHB) was used to prepare serial two fold dilutions of the compounds in test tubes. The concentration of the inoculums suspension was also adjusted to approximately 5×10^5 Colony Forming Units (CFU)/mL using MHB. Bacteria were incubated with the compounds for 24 hours at 35° C. prior to reading. In this study, Gram-positive strains used were Staphylococcus aureus DM4001 and Methicillin-resistant Staphylococcus aureus (MRSA) DM9808. Gram-negative strains used were Klebsiella pneumoniae DM4299, Pseudomonas aeruginosa ATCC23155 and Escherichia coli ATCC27922.
(§4) Methods used are as described in Example 1 above.

[6] = system: Staphylococcus aureus; format: cell-based
Protocol: as §3, §4

[7] = system: Methicillin-resistant Staphylococcus aureus (MRSA); format: cell-based
Protocol: as §3, §4

[8] = system: Klebsiella pneumoniae DM4299; format: cell-based
Protocol: as §3

[9] = system: Escherichia coli ATCC27922; format: cell-based
Protocol: as §3

[10] = in vitro; format: cell-based; conditions: human; remark: listed apart in the source
Protocol: The cytotoxicity of individual compounds screened was determined by the lactate dehydrogenase (LDH) assay. In brief, human corneal fibroblast cells were plated at a density of 10,000 cells per well in a 96-well opaque white plate (SPL Life Sciences Inc). Test compounds of various concentrations and controls were added to appropriate wells such that the final volume is 100 μl in each well. After 4 hours of exposure to the test compounds, the plates were removed from 37° C. incubator and equilibrated to 22° C. for 30 minutes. One hundred microliters of Cyto-TOX One reagent (Promega Inc. USA) was added to each well and the LDH assay was performed according to manufacturer's instructions. Fluorescence was assessed at an excitation wavelength of 560 nm and an emission wavelength of 590 nm using a micro-plate reader (Tecan Infinite 200 Pro, Switzerland). The cells exposed to 1% Triton X-100 were used as a positive control and treated as maximum releasing of LDH. The percent specific cytotoxicity of each compound was determined using the formula below (I=intensity):
% Cytotoxicity=[(Iexperiments)−(Inegative controls)]/[Ipositive controls)−(Inegative controls)]×100

[11] = in vitro; format: cell-based, rabbit; conditions: New Zealand white, rabbit, pH 7
Protocol: as §2

[12] = Dissolution in PBS for hemolytic assay; format: physicochemical
Protocol: as §2

[13] = system: S. aureus (DM4001); assay: Membrane damage, LIVE/DEAD BacLight assay; format: cell-based, Staphylococcus aureus; conditions: FIG. 7
Protocol: The extent of bacterial membrane damage was assessed using LIVE/DEAD BacLight Bacterial Viability Kit (Molecular Probes, Invitrogen) which utilises both SYTO 9 green-fluorescent nucleic acid stain and the red-fluorescent nucleic acid stain, propidium iodide in their different ability to penetrate healthy bacterial cells. SYTO9 dye could penetrate bacteria with intact and damaged membrane but propidium iodide could only penetrate bacteria with damaged bacteria thereby causing a reduction in the SYTO 9 stain's fluorescence when both dyes are present. Thus, bacteria with intact cell membranes stain fluorescent green whereas bacteria with damaged membranes stain fluorescent red. Briefly, clinical isolate S. aureus (DM4001) was collected at an early exponential growth phase and washed twice with 0.9% saline solution (live culture). A portion of the culture was resuspended in 70% 2-propanol to prepare dead culture with fully permeabilised membrane. […] Using TECAN infinite 200 microplate reader, the wavelength for excitation was fixed at 485 nm to obtain the emission spectrum from 500 nm to 700 nm. The green to red ratio (G/R) was determined using the following formula: [formula] % of membrane damage was quantified using a G/R ratio standard curve generated using bacterial mixture of 0, 10%, 50%, 90% and 100% live culture suspension. […]

MIC [5] | MIC [6] | MIC [7] | MIC [8] | MIC [9] | HC10 [2] | Compound | MTD at 24 h ([1]; Intravenous (i.v.)) | MTD at 24 h ([1]; ip, Intraperitoneal (i.p.)) | HC10 ([2]; red cells of rabbit, 1 h) | CC50 at 4 h [3] | MTD at 96 h [4] | CC50 at 4 h [10] | hemolysis at 1 h, 20 mg/mL [11] | dissolution in PBS [12] | membrane integrity [13]
2.40 µM (≈ 6.24 µg/mL) | 2.40 µM (≈ 6.24 µg/mL) | 1.20 µM (≈ 3.12 µg/mL) | 2.40 µM (≈ 6.24 µg/mL) | 4.80 µM (≈ 12.5 µg/mL) | >2000^a ug/mL | CCCCCCCCCC(=O)N[C@@H](CCCNC(=N)N)C(=O)NCC(=O)N[C@@H](CCCNC(=N)N)C(=O)N[C@@H](CCCCN)C(=O)N[C@H](C(=O)N[C@H](C(=O)N[C@@H](CCCNC(=N)N)C(=O)N[C@@H](CCCNC(=N)N)C(=O)NCCCC[C@H](NC(=O)[C@H](CCCNC(=N)N)NC(=O)[C@H](CCCNC(=N)N)NC(=O)[C@@H](NC(=O)[C@@H](NC(=O)[C@H](CCCCN)NC(=O)[C@H](CCCNC(=N)N)NC(=O)CNC(=O)[C@H](CCCNC(=N)N)NC(=O)CCCCCCCCC)C(C)C)C(C)C)C(=O)N[C@@H](CCCCN)C(=O)O)C(C)C)C(C)C [Peptide C10-V2D, (C9H19—CO—NH—RGRKVVRR)2KK] (I: Decanoyl-RGRKVVRRKK-OH / II: Decanoyl-RGRKVVRR; amide I:9-II:C) |  |  |  |  |  |  | 3.3% |  | 
>36.13 µM | 36.13 µM (≈ 77.4 µg/mL) | 18.07 µM (≈ 38.7 µg/mL) | >36.13 µM | 9.03 µM (≈ 19.4 µg/mL) | ^c114.0 ± 37.9 ug/mL | CCCCCCCCCCCCCCCC(=O)N[C@@H](CCCNC(=N)N)C(=O)NCC(=O)N[C@@H](CCCNC(=N)N)C(=O)N[C@@H](CCCCN)C(=O)N[C@H](C(=O)N[C@H](C(=O)NCCCC[C@H](NC(=O)[C@@H](NC(=O)[C@@H](NC(=O)[C@H](CCCCN)NC(=O)[C@H](CCCNC(=N)N)NC(=O)CNC(=O)[C@H](CCCNC(=N)N)NC(=O)CCCCCCCCCCCCCCC)C(C)C)C(C)C)C(=O)N[C@@H](CCCCN)C(=O)O)C(C)C)C(C)C [Peptide C16-V2D, (C15H31—CO—NH—RGRKVV)2KK] (I: Palmitoyl-RGRKVVKK-OH / II: Palmitoyl-RGRKVV; amide I:7-II:C; C-terminus assumed) |  |  |  |  |  |  |  | ^cValue in DMF. C16V2D could not dissolve in PBS. | reduced membrane integrity

Compound | MIC [5] | MIC [6] | MIC [7] | MIC [8] | MIC [9] | HC10 [2] | MTD at 24 h ([1]; Intravenous (i.v.)) | MTD at 24 h ([1]; ip, Intraperitoneal (i.p.)) | HC10 ([2]; red cells of rabbit, 1 h) | CC50 at 4 h [3] | MTD at 96 h [4] | CC50 at 4 h [10] | hemolysis at 1 h, 20 mg/mL [11] | dissolution in PBS [12] | membrane integrity [13]
CCCCCCCC(=O)N[C@@H](CCCNC(=N)N)C(=O)NCC(=O)N[C@@H](CCCNC(=N)N)C(=O)N[C@@H](CCCCN)C(=O)N[C@H](C(=O)N[C@H](C(=O)N[C@@H](CCCNC(=N)N)C(=O)N[C@@H](CCCNC(=N)N)C(=O)NCCCC[C@H](NC(=O)[C@H](CCCNC(=N)N)NC(=O)[C@H](CCCNC(=N)N)NC(=O)[C@@H](NC(=O)[C@@H](NC(=O)[C@H](CCCCN)NC(=O)[C@H](CCCNC(=N)N)NC(=O)CNC(=O)[C@H](CCCNC(=N)N)NC(=O)CCCCCCC)C(C)C)C(C)C)C(=O)N[C@@H](CCCCN)C(=O)O)C(C)C)C(C)C [Peptide C8-V2D, (C7H15—CO—NH—RGRKVVRR)2KK] (I: Octanoyl-RGRKVVRRKK-OH / II: Octanoyl-RGRKVVRR; amide I:9-II:C) | 2.46 µM (≈ 6.26 µg/mL) | 2.46 µM (≈ 6.26 µg/mL) | 1.23 µM (≈ 3.13 µg/mL) | 2.46 µM (≈ 6.26 µg/mL) | 4.92 µM (≈ 12.5 µg/mL) |  | 6.25 mg/kg | 100 mg/kg | >2000 µg/mL | > 2000 µM | ≥ 3 mg/kg | > 3000 µM |  |  | 
